Measured values taken from article PMC2628629 (Bioorganic & medicinal chemistry letters, 2008).

Target: E. coli MenE (Escherichia coli, UniProt P37353)
Assay: MenE inhibition, coupled assay with MenE and MenB
Assay type: biochemical
Conditions: for Inhibition of MenE, result in words: inhibitor at up to 200 μM

Chain of E. coli MenE (P37353 whole entry): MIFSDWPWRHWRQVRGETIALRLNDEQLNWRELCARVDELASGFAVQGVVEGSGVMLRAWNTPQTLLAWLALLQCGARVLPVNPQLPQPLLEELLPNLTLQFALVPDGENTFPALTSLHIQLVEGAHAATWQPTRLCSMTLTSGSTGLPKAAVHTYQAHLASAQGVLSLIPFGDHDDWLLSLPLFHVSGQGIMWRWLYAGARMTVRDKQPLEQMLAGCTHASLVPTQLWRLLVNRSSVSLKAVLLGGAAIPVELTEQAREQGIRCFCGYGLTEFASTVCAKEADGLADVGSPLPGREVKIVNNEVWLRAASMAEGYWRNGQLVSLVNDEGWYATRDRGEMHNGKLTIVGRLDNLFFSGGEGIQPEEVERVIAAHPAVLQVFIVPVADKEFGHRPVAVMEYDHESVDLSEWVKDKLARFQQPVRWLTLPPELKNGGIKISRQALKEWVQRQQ

## COC(=O)c1ccccc1C(=O)CCC(=O)NS(=O)(=O)OC[C@H]1O[C@@H](n2cnc3c(N)ncnc32)[C@H](O)[C@@H]1O [Compound 1, MeOSB-AMS]
  Inhibition of MenE, result in words: effective inhibitors

## COC(=O)c1ccccc1C(=O)CCC(=O)NS(=O)(=O)NC[C@H]1O[C@@H](n2cnc3c(N)ncnc32)[C@H](O)[C@@H]1O [Compound 2, MeOSB-AMSN]
  Inhibition of MenE, result in words: effective inhibitors

## COC(=O)c1ccccc1C(=O)CC/C=C/S(=O)(=O)NC[C@H]1O[C@@H](n2cnc3c(N)ncnc32)[C@H](O)[C@@H]1O [Compound 3, MeOSB-AVSN]
  Kinetic analysis of MenE inhibition (mode of binding): slow-binding inhibitor
